15 molecules from patent US5523305A, “Tachykinin receptor antagonists, isoquinolones and their production” (Takeda Chemical Industries, Ltd., priority 1992, dated 1996) can be followed below.

T1 sequence (P14600 whole entry): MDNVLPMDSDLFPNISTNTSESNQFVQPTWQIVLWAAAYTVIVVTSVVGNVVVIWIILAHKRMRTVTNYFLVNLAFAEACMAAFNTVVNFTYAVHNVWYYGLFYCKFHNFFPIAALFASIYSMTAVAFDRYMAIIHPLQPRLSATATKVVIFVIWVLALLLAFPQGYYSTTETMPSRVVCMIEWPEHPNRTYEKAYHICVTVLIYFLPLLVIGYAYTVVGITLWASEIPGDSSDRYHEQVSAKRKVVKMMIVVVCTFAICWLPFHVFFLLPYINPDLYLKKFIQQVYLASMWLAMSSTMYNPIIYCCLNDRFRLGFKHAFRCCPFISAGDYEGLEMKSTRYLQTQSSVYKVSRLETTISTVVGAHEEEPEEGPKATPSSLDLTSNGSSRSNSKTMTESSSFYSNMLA
T2 sequence (P25103 whole entry): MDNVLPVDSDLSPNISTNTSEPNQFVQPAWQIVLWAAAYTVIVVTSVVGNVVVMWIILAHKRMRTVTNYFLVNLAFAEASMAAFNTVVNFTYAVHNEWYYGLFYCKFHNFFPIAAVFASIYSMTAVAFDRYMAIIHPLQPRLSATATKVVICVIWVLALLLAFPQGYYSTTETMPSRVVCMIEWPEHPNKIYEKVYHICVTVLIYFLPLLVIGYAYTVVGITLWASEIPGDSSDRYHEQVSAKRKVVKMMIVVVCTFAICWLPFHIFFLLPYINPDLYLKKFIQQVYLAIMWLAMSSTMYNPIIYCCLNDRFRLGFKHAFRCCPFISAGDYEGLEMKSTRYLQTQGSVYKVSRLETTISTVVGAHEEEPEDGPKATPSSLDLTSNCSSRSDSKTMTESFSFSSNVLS

One test concerns the target T1, substance P receptor from rat forebrain (Rattus norvegicus, UniProt P14600).
T1 construct: The receptor was prepared from the brain of Wistar rats (male, 8 weeks old, Charles-River); from tissue; host or cells: forebrain membranes of male Wistar rats
Nature of the test: Radioligand receptor binding inhibitory assay using receptor from rat forebrain (125I-BHSP). Further details: species or system rat (Wistar). The settings on record: 25° C., 30 minutes, pH 7.4. Here is the method:
(1) Radioligand receptor binding inhibitory assay using receptor from rat forebrain The method of R. Qirion and […] (Neuropeptide 4, 325 (1984)) was modified and used. The receptor was prepared from the brain of Wistar rats (male, 8 weeks old, Charles-River). The rat was sacrificed by decapitation and the forebrain was isolated. The forebrain was homogenized in 30 ml/rat of 150 mM Tris-HCl buffer (pH 7.4) containing 120 mM sodium chloride and 5 mM potassium chloride using a Polytron homogenizer (Kinematika, Germany) and centrifuged at 40,000×G for 20 minutes. The pellet was suspended in 30 ml of 50 mM Tris-HCl buffer (pH 7.4) containing 300 mM potassium chloride and 10 mM ethylenediaminetetracetic acid and stirred gently with ice-cooling for 30 minutes. This suspension was centrifuged at 40,000×G for 20 minutes and the pellet was washed with 30 ml of 50 mM Tris-HCl buffer (pH 7.4). The receptor specimen thus obtained was preserved frozen (-80° C.). The above specimen was suspended in a reaction buffer (50 mM Tris-HCl buffer (pH 7.4), 0.02% bovine serum albumin, 1 mM phenylmethylsulfonyl fluoride, 2 μg/ml chymostatin, 40 μg/ml bacitracin, 3 mM manganese chloride) at a protein concentration of 1.5 mg/ml and a 100 μl portion of the suspension was used in the reaction. […] The amount of nonspecific binding was determined by adding substance P at a final concentration of 2×10^-6 M. After the reaction, using a cell harvester (290PHD, Cambridge Technology, Inc., England), rapid filtration was carried out through a glass filter (GF/B, Whatman, U.S.A.) to stop the reaction. After washings three times with 250 μl of 50 mM Tris-HCl buffer (pH 7.4) containing 0.02% bovine serum albumin, the radioactivity remaining on the filter was measured with a gamma counter. Before use, the filter was immersed in 0.1% polyethyleneimine for 24 hours and air-dried.
In turn, `Cc1cc2c(-c3ccccc3)c(NC(=O)NCc3cccs3)n(C)c(=O)c2cc1C` [Example 14, N-(1,2-Dihydro-2,6,7-trimethyl-1-oxo-4-Phenylisoquinolin-3-yl)-N'-(2-thiophenemethyl)urea] showed an IC50 of 56 nM.

For the molecule `Cc1cc2c(-c3ccccc3)c(NC(=O)NCc3ccco3)n(C)c(=O)c2cc1C` [Example 12, N-(2-Furfuryl)-N'-(1,2-dihydro-2,6,7-trimethyl-1-oxo-4-phenylisoquinolin-3-yl)urea], the IC50 was 64 nM.

In the case of `Cc1cc2c(-c3ccccc3)c(NC(=O)NCc3ccccc3)n(C)c(=O)c2cc1C` [Example 2, N-Benzyl-N'-(1,2-dihydro-2,6,7-trimethyl-1-oxo-4-phenylisoquinolin-3-yl)ure], the IC50 was found to be 19 nM.

For `Cc1cc2c(-c3ccccc3)c(NC(=O)NCC3CCCCC3)n(C)c(=O)c2cc1C` [Example 15, N-Cyclohexylmethyl-N'-(1,2-dihydro-2,6,7-trimethyl-1-oxo-4-phenylisoquinolin-3-yl)urea], the IC50 was determined as 76 nM.

Regarding `Cc1ccc(CNC(=O)Nc2c(-c3ccccc3)c3cc(C)c(C)cc3c(=O)n2C)cc1` [Example 16, N-(1,2-Dihydro-2,6,7-trimethyl-1-oxo-4-phenylisoquinolin-3-yl)-N'-(4-methylbenzyl)urea], the IC50 is 11 nM.

In turn, `CCn1c(NC(=O)NCc2ccccc2)c(-c2ccccc2)c2cc(C)c(C)cc2c1=O` [Example 19, N-Benzyl-N'-(2-ethyl-1,2-dihydro-6,7-dimethyl-1-oxo-4-phenylisoquinolin-3-yl)urea] registered an IC50 of 32 nM.

`Cc1cc2c(-c3ccccc3)c(NC(=O)NCc3ccccn3)n(C)c(=O)c2cc1C` [Example 13, N-(1,2-Dihydro-2,6,7-trimethyl-1-oxo-4-phenylisoquinolin-3-yl)-N'-(2-pyridinemethyl)urea] came in with an IC50 of 42 nM.

Regarding `COc1ccccc1-c1c(NC(=O)NCc2ccccc2)n(C)c(=O)c2ccccc12` [Example 24, N-Benzyl-N'-[1,2-dihydro-4-(2-methoxyphenyl)-2-methyl-1-oxoisoquinolin-3-yl]urea], the IC50 was determined as 100 nM.

`Cc1cc2c(-c3ccccc3)c(NC(=O)NCc3ccccc3C)n(C)c(=O)c2cc1C` [Example 18, N-(1,2-Dihydro-2,6,7-trimethyl-1-oxo-4-phenylisoquinolin-3-yl)-N'-(2-methylbenzyl)urea] registered an IC50 of 14 nM.

The same test, now with this note: read-out: concentration necessary to cause 50% inhibition [IC50], 25° C., 30 minutes, pH 7.4.
Regarding `Cc1cccc(CNC(=O)Nc2c(-c3ccccc3)c3cc(C)c(C)cc3c(=O)n2C)c1` [Example 17, N-(1,2-Dihydro-2,6,7-trimethyl-1-oxo-4-phenylisoquinolin-3-yl)-N'-(3-methylbenzyl)urea], the IC50 is 18 nM.

Another test has as its target T2, substance P receptor from human lymphoblast cells (IM-9) (Homo sapiens, UniProt P25103).
T2 construct: The receptor was prepared from human lymphoblast cells (IM-9); endogenous in cells; host or cells: IM-9 human lymphoblast cells
The experiment in a line: Radioligand receptor binding inhibitory assay using receptor from human lymphoblast cells (IM-9) (125I-BHSP). As to conditions: human lymphoblast IM-9 cell receptor, 25° C., 30 minutes, pH 7.4. On the procedure: (2) Radioligand receptor binding inhibitory assay using receptor from human lymphoblast cells (IM-9)
The method of A. Margaret et al. [Molecular Pharmacology 42, 458 (1992)] was modified and used. The receptor was prepared from human lymphoblast cells (IM-9). IM-9 cells were grown in 175 cm^2 tissue culture flasks (100 ml×10) at a density approximately 2×10^5 /ml of RPMI 1640 with L-glutamine, 10% (V/V) heat inactivated fetal calf serum, penicillin (100 u/ml), and streptomycin (100 μg/ml) at 37° C. in 5%CO2 /95% air for 3 days. IM-9 cells were obtained by centrifugation at 500×g for 5 minutes at 5° C. The pellet obtained was washed once with phosphate buffer (Flow Laboratories, CAT. No. 28-103-05), homogenized using Polytron homogenizer(Kinematika, Germany) in 30 ml of 50 mM Tris-HCl buffer containing 120 mM NaCl, 5 mM KCl, 2 μg/ml phenylmethyl sufonyl fluoride, and 1 mM ethylenediamine tetra-acetic acid, and then centrifuged at 40,000×g for 20 minutes. The residue was washed twice with 30 ml of buffer described above, and preserved frozen (-80° C.).
The above specimen was suspended in a reaction buffer (50 mM Tris-HCl buffer (pH 7.4), 0.02% bovine serum albumin, 1 mM phenylmethylsulfonyl fluoride, 2 μg/ml chymostatin, 40 μg/ml bacitracin, 3 mM manganese chloride) at a protein concentration of 1.5 mg/ml and a 100 μl portion of the suspension was used in the reaction. After addition of the sample and 125I-BHSP (0.46 KBq), the reaction was conducted in 0.2 ml of reaction buffer at 25° C. for 30 minutes. The amount of nonspecific binding was determined by adding substance P at a final concentration of 2×10^-6 M. After the reaction, using a cell harvester (290PHD, Cambridge Technology, Inc., England), rapid filtration was carried out through a glass filter (GF/B, Whatman, U.S.A.) to stop the reaction. After washing three times with 250 μl of […] buffer (pH 7.4) containing 0.02% bovine serum albumin, the radioactivity remaining on the filter was measured with a gamma counter. Before use, the filter was immersed in 0.1% polyethyleneimine for 24 hours and air-dried.
Turning to `Cc1cc2c(-c3ccccc3)c(NC(=O)NCc3ccccc3Cl)n(C)c(=O)c2cc1C` [Example 42, N-(2-Chlorobenzyl)-N'-(1,2-dihydro-2,6,7-trimethyl-1-oxo-4-phenylisoquinolin-3-yl)urea], the IC50 stood at 76 nM.

The test is the same for the next values; noted with them: read-out: concentration necessary to cause 50% inhibition [IC50], human lymphoblast IM-9 cell receptor, 25° C., 30 minutes, pH 7.4.
For `Cc1cc2c(-c3ccccc3)c(NC(=O)N(C)Cc3ccccc3)n(C)c(=O)c2cc1C` [Example 1, N-Benzyl-N'-(1,2-dihydro-2,6,7-trimethyl-1-oxo-4-phenylisoquinolin-3-yl)-N-methylurea], the IC50 was 16 nM.

For the molecule `CCN(Cc1ccccc1)C(=O)Nc1c(-c2ccccc2)c2cc(C)c(C)cc2c(=O)n1C` [Example 53, N-Benzyl-N-ethyl-N'-(1,2-dihydro-2,6,7-trimethyl-1-oxo-4-phenylisoquinolin-3-yl)urea], the IC50 came to 66 nM.

Regarding `COc1ccccc1CN(C)C(=O)Nc1c(-c2ccccc2)c2cc(C)c(C)cc2c(=O)n1C` [Example 3, N-(1,2-Dihydro-2,6,7-trimethyl-1-oxo-4-phenylisoquinolin-3-yl)-N'-(2-methoxybenzyl)-N'-methylurea], the IC50 came out at 23 nM.

With `Cc1cc2c(-c3ccccc3)c(NC(=O)N(C)Cc3ccccc3Cl)n(C)c(=O)c2cc1C` [Example 52], the IC50 came to 4.2 nM.
